Read-outs that look alike come from different tables or passages of the source.

The data set can be described thus: Mitochondrial toxicity (Glu/Gal) assay. The data set is classed as cell-based. As to conditions: for Score: mitotoxicity score, Glu/Gal assay; for Δ IC50, glu/IC50, gal: ratio IC50 glu / IC50 gal. An excerpt: The compounds of the invention/examples may have advantages associated with in vitro potency, kill kinetics (i.e. bactericidal effect) in vitro, PK properties, food effect, safety/toxicity (including liver toxicity, coagulation, 5-LO oxygenase), metabolic stability, Ames II negativity, MNT negativity, aqueous based solubility (and ability to formulate) and/or cardiovascular effect e.g. on animals (e.g. anesthetized guinea pig). Data that is generated/calculated may be obtained using standard methods/assays, for instance that are available in the literature or which may be performed by a supplier (e.g. Microsomal Stability Assay—Cyprotex, Mitochondrial toxicity (Glu/Gal) assay—Cyprotex, as well as literature CYP cocktail inhibition assays). GSH can be measured (reactive metabolites, glucuronidation) to observe if a dihydrodiol is observed by LCMS (fragmentation ions), which would correspond to a dihydroxylation on the core heterocycle.

The mark [1] stands for this setting: galactose medium (Glu/Gal mitotoxicity assay), read-out: IC50, gal.
The mark [2] stands for this setting: glucose medium (Glu/Gal mitotoxicity assay), read-out: IC50, glu.

The IC50 is the concentration at which inhibition is half-maximal. `Cc1cnc2nc(C3CC3)c(C(=O)NCc3ccc(-c4cc5n(n4)CCN(S(C)(=O)=O)C5)cc3)n2c1` [Compound 99]: the concentration for half-maximal inhibition (IC50) was over 200 µM under setting [1] and over 200 µM under setting [2].

As to `CCc1nc2cc(C)c(C)cn2c1C(=O)NCc1ccc(-c2nc3n(n2)CCN(S(=O)(=O)C(F)(F)F)C3)cc1` [Compound 23], the IC50 under setting [1] is over 200 µM and the IC50 under setting [2] is over 200 µM.

In the case of `O=C(NCc1ccc(-c2nc3n(n2)CCN(S(=O)(=O)C(F)(F)F)C3)c(F)c1)c1c(C(F)F)nc2ccc(Cl)cn12` [Compound 5], the Score result was “[x]1” and the “Δ IC50, glu/IC50, gal” value worked out at 0.96. Also, where the note is “read-out: IC50, gal”, the concentration for half-maximal inhibition (IC50) is 117 µM. In addition, under “read-out: IC50, glu”, the IC50 amounted to 112 µM.

For `CCc1nc2nc(C)c(C)cn2c1C(=O)NCc1ccc(-c2nc3n(n2)CCN(S(=O)(=O)C(F)(F)F)C3)cc1` [Compound 33], the Score entry is “[x]1” and the “Δ IC50, glu/IC50, gal” value was under 0.98. The IC50 (read-out: IC50, gal) is over 200 µM. In addition, where the note is “read-out: IC50, glu”, the IC50 came to 196 µM.

Consider `Cc1ccc2nc(C3CC3)c(C(=O)NCc3ccc(-c4nc5n(n4)CCN(S(=O)(=O)C(F)(F)F)C5)cc3)n2c1` [Compound 30], for which the Score entry is “[x]1” and the “Δ IC50, glu/IC50, gal” value worked out at 1.35. Also, where the note is “read-out: IC50, gal”, the IC50 came out at 71.1 µM. Further, the IC50 (read-out: IC50, glu) stood at 95.7 µM.

As to `CCc1nc2c(Cl)c(OC)ccn2c1C(=O)NCc1ccc(-c2nc3n(n2)CCN(S(=O)(=O)C(F)(F)F)C3)c(F)c1` [Compound 11], the “Δ IC50, glu/IC50, gal” value is recorded as over 2.93. The 50% inhibitory concentration (IC50) (read-out: IC50, gal) was found to be 68.2 µM. In addition, the IC50 (read-out: IC50, glu) was over 200 µM.

With `CCc1nc2cc(OC)c(Cl)cn2c1C(=O)NCc1cnc(-c2nc3n(n2)CCN(S(=O)(=O)C(F)(F)F)C3)c(F)c1` [Compound 16], the IC50 under setting [1] is over 200 µM and the IC50 under setting [2] was over 200 µM.

As for `CCc1nc2ncc(C)cn2c1C(=O)NCc1ccc(-c2nc3n(n2)CCNC3)cc1` [Compound 37], the IC50 is, setting by setting: under setting [1], over 200 µM; under setting [2], over 200 µM.

For the compound `Cc1cnc2nc(C3CC3)c(C(=O)NCc3ccc(-c4cc5n(n4)CCN(CC(F)(F)F)C5)cc3)n2c1` [Compound 107], the Score entry is “[x]0” and the “Δ IC50, glu/IC50, gal” value is recorded as over 1.13. For the same compound, the IC50 (read-out: IC50, gal) amounted to 44.2 µM. In addition, for the setting “read-out: IC50, glu”, the IC50 is over 50 µM.

For `CCc1nc2ncc(C)cn2c1C(=O)NCc1cnc(-c2cc3n(n2)CCN(S(=O)(=O)C(F)(F)F)C3)nc1` [Compound 131], the half-inhibitory concentration (IC50) runs as follows: under setting [1], over 100 µM; under setting [2], over 100 µM.

For `CCc1nc2ncc(F)cn2c1C(=O)NCc1ccc(-c2nc3n(n2)CCN(S(=O)(=O)C(F)(F)F)C3)c(F)c1` [Compound 17], the IC50 was over 200 µM under setting [1] and over 200 µM under setting [2].

In the case of `CCc1nc2ccc(C)cn2c1C(=O)NCc1ccc(-c2nc3n(n2)CCN(C(=O)C(F)(F)F)C3)cc1` [Compound 53], the IC50 by setting is: under setting [1], over 200 µM; under setting [2], over 200 µM.

With `CCc1nc2ncc(C)cn2c1C(=O)NCc1ccc(-c2cn3c(n2)CN(S(=O)(=O)C(F)(F)F)CC3)cc1` [Compound 89], the half-inhibitory concentration (IC50) reads like this: under setting [1], over 200 µM; under setting [2], over 200 µM.

Regarding `CCc1nc2ncc(C)cn2c1C(=O)NCc1cccc(Cc2cc3n(n2)CCN(S(=O)(=O)C(F)(F)F)C3)c1` [Compound 95], the Score entry is “[x]1” and the “Δ IC50, glu/IC50, gal” value is reported as over 1.7. For the setting “read-out: IC50, gal”, the IC50 stood at 117 µM. Further, the IC50 (read-out: IC50, glu) was over 200 µM.

As for `O=C(NCc1ccc(-c2cn3c(n2)CN(S(=O)(=O)C(F)(F)F)CC3)cc1)c1c(C(F)(F)F)nc2ccccn12` [Compound 115], the “Δ IC50, glu/IC50, gal” value was over 3.08. Also, the IC50 (read-out: IC50, gal) amounted to 64.8 µM. Besides, the IC50 (read-out: IC50, glu) was over 200 µM.

On to `CCc1nc2ccc(C)cn2c1C(=O)NCc1ccc(-c2nc3n(n2)CCNC3)cc1` [Compound 52], for which the IC50 reads like this: under setting [1], over 200 µM; under setting [2], over 200 µM.

For `CCc1nc2ncc(C)cn2c1C(=O)NCc1csc(-c2nc3n(n2)CCN(S(=O)(=O)C(F)(F)F)C3)n1` [Compound 73], the IC50 runs as follows: (read-out: IC50, gal) over 200 µM; (read-out: IC50, glu) over 200 µM.

(Values after patent publication US20240199651A1, “ANTIBACTERIAL COMPOUNDS” (JANSSEN SCIENCES IRELAND UNLIMITED COMPANY, priority 2021, published 2024).)
